Reference: patent publication US11919902B2, “Aryl-bipyridine amine derivatives as phosphatidylinositol phosphate kinase inhibitors” (HiberCell, Inc., priority 2017, dated 2024)

How the values were obtained:
[1] = molecular target: T1, PIP4K2A (full length protein, SignalChem) (Homo sapiens, UniProt P48426); assay: Kinase Assay PIP4K2 A (Sprint); ADP-Glo biochemical assay; conditions: Table 2; compounds listed under IC50 range headings
T1 construct: 4 nM PIP4K2A (full length protein, SignalChem); purchased SignalChem
T1 sequence (P48426 1-406): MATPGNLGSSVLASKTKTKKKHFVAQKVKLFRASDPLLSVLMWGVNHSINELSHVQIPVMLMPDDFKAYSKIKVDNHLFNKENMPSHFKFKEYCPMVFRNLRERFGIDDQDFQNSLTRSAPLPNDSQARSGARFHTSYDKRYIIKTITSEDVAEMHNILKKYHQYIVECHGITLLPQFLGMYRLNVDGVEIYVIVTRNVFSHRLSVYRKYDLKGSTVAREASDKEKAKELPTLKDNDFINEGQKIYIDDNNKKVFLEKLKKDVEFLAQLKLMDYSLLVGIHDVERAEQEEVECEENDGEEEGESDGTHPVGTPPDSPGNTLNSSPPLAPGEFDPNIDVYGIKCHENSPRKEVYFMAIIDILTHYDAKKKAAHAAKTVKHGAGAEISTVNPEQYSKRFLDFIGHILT
In short: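 ADP-Glo luminescence detected ADP after a 1 h RT reaction started with 60 μM ATP solution. Before that, full-length PIP4K2A (4 nM in mix) with 100 μM PI(5)P diC8 was pre-incubated 15 min with compounds in MOPS buffer pH 7.2, 25 mM MgCl2, 0.005% Tween 20. IC50 derived from % inhibition relative to DMSO over 10 three-fold concentrations.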

[2] = molecular target: T2, GST tagged PIP4KtypeIIB (Homo sapiens, UniProt P78356); assay: Trans-FI P kinase assay PIP4K2B (PIP4KtypeIIB inhibition assay); format: biochemical; conditions: Table 4; compounds listed under IC50 range headings; 100 uM GTP, 5 nM PIP4KIIB; read-out: Trans-FI P kinase assays: PIP4K2B IC50
T2 construct: made in house; host or cells: E. coli
T2 sequence (P78356 1-416): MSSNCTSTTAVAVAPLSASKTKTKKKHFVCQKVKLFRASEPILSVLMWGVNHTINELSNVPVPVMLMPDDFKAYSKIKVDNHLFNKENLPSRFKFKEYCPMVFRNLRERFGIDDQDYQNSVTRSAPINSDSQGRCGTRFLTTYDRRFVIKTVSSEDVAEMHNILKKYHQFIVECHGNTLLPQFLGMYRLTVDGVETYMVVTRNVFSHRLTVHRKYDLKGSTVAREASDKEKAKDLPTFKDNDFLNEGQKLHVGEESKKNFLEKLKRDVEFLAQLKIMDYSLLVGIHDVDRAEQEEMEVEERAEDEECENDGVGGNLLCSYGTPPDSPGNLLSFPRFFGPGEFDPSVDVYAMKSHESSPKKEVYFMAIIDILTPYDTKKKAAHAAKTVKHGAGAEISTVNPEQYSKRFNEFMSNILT
In short: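 Transcreener FI fluorescence, converted to GDP by calibration, tracked product from 5 nM E. coli-expressed GST-PIP4KIIB acting on 80 uM PI5P (DOPE carrier) with 100 uM GTP. Compound (top 4.8 uM final, 5% DMSO) was preincubated 1 h at 27 C before the 2 h reaction; IC50 fitted from residual activity.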

Structure (SMILES)	IC50 [1] [nM]	IC50 [2] [nM]
O=C1CCCN1c1ccc(-c2cncc(-c3cnc4ncc(-c5cccnc5)n4c3)c2)cc1 [Example 344, 1-(4-(5-(3-(pyridin-3-yl)imidazo[1,2-a]pyrimidin-6-yl)pyridin-3-yl)phenyl)pyrrolidin-2-one]	2500 to 5000	> 5000
Cn1cc(-c2ccc(N)nc2)c2cc(-c3cncc(-c4ccc(N5CCCC5=O)cc4)c3)cnc21 [Example 347, 1-(4-(5-(3-(6-aminopyridin-3-yl)-1-methyl-1H-pyrrolo[2,3-b]pyridin-5-yl)pyridin-3-yl)phenyl)pyrrolidin-2-one]	100 to 1000	100 to 1000
CN1CCn2c(cc3c(-c4cncc(-c5ccc(-c6nnc7n6CCC7)cc5)c4)ccnc32)C1=O [Example 348, 4-(5-(4-(6,7-dihydro-5H-pyrrolo[2,1-c][1,2,4]triazol-3-yl)phenyl)pyridin-3-yl)-7-methyl-8,9-dihydropyrido[3′,2′:4,5]pyrrolo[1,2-a]pyrazin-6(7H)-one]	100 to 1000	100 to 1000
CN1CCn2c(cc3c(-c4cncc(-c5ccc(C(=O)N6CCCC6)cc5)c4)ccnc32)C1=O [Example 349, 7-methyl-4-(5-(4-(pyrrolidine-1-carbonyl)phenyl)pyridin-3-yl)-8,9-dihydropyrido[3′,2′:4,5]pyrrolo[1,2-a]pyrazin-6(7H)-one]	100 to 1000	100 to 1000
CC(=O)Nc1ncc(-c2cn(C)c3ncc(-c4cncc(-c5ccc(N6CCCC6=O)cc5)c4)cc23)cn1 [Example 350, N-(5-(1-methyl-5-(5-(4-(2-oxopyrrolidin-1-yl)phenyl)pyridin-3-yl)-1H-pyrrolo[2,3-b]pyridin-3-yl)pyrimidin-2-yl)acetamide]	5 to 100	100 to 1000
Cc1c2n(c3nccc(-c4cncc(-c5ccc(-c6nncn6C6CCC6)cc5)c4)c13)CCN(c1ccccn1)C2=O [Example 356, 4-(5-(4-(4-cyclobutyl-4H-1,2,4-triazol-3-yl)phenyl)pyridin-3-yl)-5-methyl-7-(pyridin-2-yl)-8,9-dihydropyrido[3′,2′:4,5]pyrrolo[1,2-a]pyrazin-6(7H)-one]	< 5000	100 to 1000
CC(C)c1cnnn1-c1ccc(-c2cncc(-c3ccnc4c3cc3n4CCN(c4ccccn4)C3=O)c2)cc1 [Example 357, 4-(5-(4-(5-isopropyl-1H-1,2,3-triazol-1-yl)phenyl)pyridin-3-yl)-7-(pyridin-2-yl)-8,9-dihydropyrido[3′,2′:4,5]pyrrolo[1,2-a]pyrazin-6(7H)-one]	5 to 100	1 to 10
CCn1cnnc1-c1ccc(-c2cncc(-c3ccnc4c3cc3n4CCN(C)C3=O)c2)cc1 [Example 358, 4-(5-(4-(4-ethyl-4H-1,2,4-triazol-3-yl)phenyl)pyridin-3-yl)-7-methyl-8,9-dihydropyrido[3′,2′:4,5]pyrrolo[1,2-a]pyrazin-6(7H)-one]	100 to 1000	1 to 10
CC(C)n1cncc1-c1ccc(-c2cncc(-c3ccnc4c3cc3n4CCN(C)C3=O)c2)cc1 [Example 359, 4-(5-(4-(1-isopropyl-1H-imidazol-5-yl)phenyl)pyridin-3-yl)-7-methyl-8,9-dihydropyrido[3′,2′:4,5]pyrrolo[1,2-a]pyrazin-6(7H)-one]	100 to 1000	100 to 1000
CC[C@H](C)n1cnnc1-c1ccc(-c2cncc(-c3ccnc4c3cc3n4CCN(C)C3=O)c2)cc1 [Example 360, (S)-4-(5-(4-(4-(sec-butyl)-4H-1,2,4-triazol-3-yl)phenyl)pyridin-3-yl)-7-methyl-8,9-dihydropyrido[3′,2′:4,5]pyrrolo[1,2-a]pyrazin-6(7H)-one]	100 to 1000	10 to 100

The remaining lines, values ahead:

IC50 [1] [nM]	IC50 [2] [nM]	Structure (SMILES)
100 to 1000	10 to 100	CC[C@@H](C)n1cnnc1-c1ccc(-c2cncc(-c3ccnc4c3cc3n4CCN(C)C3=O)c2)cc1 [Example 361, (R)-4-(5-(4-(4-(sec-butyl)-4H-1,2,4-triazol-3-yl)phenyl)pyridin-3-yl)-7-methyl-8,9-dihydropyrido[3′,2′:4,5]pyrrolo[1,2-a]pyrazin-6(7H)-one]
100 to 1000	10 to 100	CNC(=O)c1cc2c(-c3cnc(N)c(-c4ccc(-c5nncn5C(C)C)cc4)c3)ccnc2o1 [Example 362, 4-(6-amino-5-(4-(4-isopropyl-4H-1,2,4-triazol-3-yl)phenyl)pyridin-3-yl)-N-methylfuro[2,3-b]pyridine-2-carboxamide]
100 to 1000	10 to 100	CC(C)c1cnoc1-c1ccc(-c2cncc(-c3ccnc4c3cc3n4CCN(C)C3=O)c2)cc1 [Example 363, 4-(5-(4-(4-isopropylisoxazol-5-yl)phenyl)pyridin-3-yl)-7-methyl-8,9-dihydropyrido[3′,2′:4,5]pyrrolo[1,2-a]pyrazin-6(7H)-one]
< 5000	1000 to 2500	CC(C)n1ccnc1-c1ccc(-c2cncc(-c3ccnc4c3cc3n4CCN(C)C3=O)c2)cc1 [Example 364, 4-(5-(4-(1-isopropyl-1H-imidazol-2-yl)phenyl)pyridin-3-yl)-7-methyl-8,9-dihydropyrido[3′,2′:4,5]pyrrolo[1,2-a]pyrazin-6(7H)-one]
1000 to 2500	10 to 100	CN1CCn2c(cc3c(-c4cncc(-c5ccc(-c6nncn6C6CCC6)cc5)c4)ccnc32)C1=O [Example 365, 4-(5-(4-(4-cyclobutyl-4H-1,2,4-triazol-3-yl)phenyl)pyridin-3-yl)-7-methyl-8,9-dihydropyrido[3′,2′:4,5]pyrrolo[1,2-a]pyrazin-6(7H)-one]
5 to 100	10 to 100	CNC(=O)c1cc2c(-c3cnc(N)c(-c4ccc(-c5nncn5CC(C)C)cc4)c3)ccnc2o1 [Example 366, 4-(6-amino-5-(4-(4-isobutyl-4H-1,2,4-triazol-3-yl)phenyl)pyridin-3-yl)-N-methylfuro[2,3-b]pyridine-2-carboxamide]
2500 to 5000	1 to 10	CC(C)Cn1cnnc1-c1ccc(-c2cncc(-c3ccnc4c3cc3n4CCN(c4ccccn4)C3=O)c2)cc1 [Example 367, 4-(5-(4-(4-isobutyl-4H-1,2,4-triazol-3-yl)phenyl)pyridin-3-yl)-7-(pyridin-2-yl)-8,9-dihydropyrido[3′,2′:4,5]pyrrolo[1,2-a]pyrazin-6(7H)-one]
5 to 100	1 to 10	CC(C)c1cnnn1-c1ccc(-c2cncc(-c3ccnc4c3cc3n4CCN(C)C3=O)c2)cc1 [Example 368, 4-(5-(4-(5-isopropyl-1H-1,2,3-triazol-1-yl)phenyl)pyridin-3-yl)-7-methyl-8,9-dihydropyrido[3′,2′:4,5]pyrrolo[1,2-a]pyrazin-6(7H)-one]
100 to 1000	10 to 100	CN1CCn2c(cc3c(-c4cncc(-c5ccc(-c6nncn6CCC6CC6)cc5)c4)ccnc32)C1=O [Example 369]
5 to 100	1 to 10	Cc1ccnnc1-c1ccc(-c2cncc(-c3ccnc4c3cc3n4CCN(C)C3=O)c2)cc1 [Example 370, 7-methyl-4-(5-(4-(4-methylpyridazin-3-yl)phenyl)pyridin-3-yl)-8,9-dihydropyrido[3′,2′:4,5]pyrrolo[1,2-a]pyrazin-6(7H)-one]
100 to 1000	10 to 100	CC(C)n1cnnc1-c1ccc(-c2cncc(-c3ccnc4[nH]c(C(=O)NCCc5ccncc5)cc34)c2)cc1 [Example 371, 4-(5-(4-(4-isopropyl-4H-1,2,4-triazol-3-yl)phenyl)pyridin-3-yl)-N-(2-(pyridin-4-yl)ethyl)-1H-pyrrolo[2,3-b]pyridine-2-carboxamide]
1000 to 2500	10 to 100	CC(C)Cn1cnnc1-c1ccc(-c2cncc(-c3ccnc4[nH]c(C(=O)NCc5ccccc5)cc34)c2)cc1 [Example 372, N-benzyl-4-(5-(4-(4-isobutyl-4H-1,2,4-triazol-3-yl)phenyl)pyridin-3-yl)-1H-pyrrolo[2,3-b]pyridine-2-carboxamide]
100 to 1000	10 to 100	CC(C)n1cnnc1-c1ccc(-c2cncc(-c3ccnc4[nH]c(C(=O)NCc5ccccc5)cc34)c2)cc1 [Example 373, N-benzyl-4-(5-(4-(4-isopropyl-4H-1,2,4-triazol-3-yl)phenyl)pyridin-3-yl)-1H-pyrrolo[2,3-b]pyridine-2-carboxamide]
